In patent publication US7232646B2, “Low-viscous, radiation curable formulation, particularly for the stereo-lithographical production of earpiece” (Dreve-Otoplastik GmbH, priority 2003, dated 2007):

Test: Window pane method for critical energy Ec and laser penetration depth Dp
Type: physicochemical
Conditions: inhibitor added to resin formulation; for influence of inhibitor concentration on laser penetration depth Dp: FIGS. 1 and 3; for influence of inhibitor concentration on critical energy Ec: FIGS. 2 and 4
Description: Into the mixture according to the invention, 2,2,6,6-tetramethylpiperdine-1-yloxy (free radical) is added. The influence of the concentration of the 2,2,6,6-tetramethylpiperdine-1-yloxy (free radical) in the exemplary formalation 1 upon the penetration depth of the laser beam and energy has been shown in FIGS. 1 and 2. The laser penetration depth and the critical energy are determined by means of the window pane method described by P. F. Jacobs and D. R. Read in Rapid Prototyping and Manufacturing of the Society of Manufacturing Engineers, Dearborn, Mich. (1992), 1st, ed., pgs. 263-280. […] This influence of the inhibitor 2,2,6,6-tetramethylpiperdine-1-yloxy (free radical) upon the relevant parameters Ec (critical energy in mJ cm^−2) and Dp (laser penetration depth in mils) of the stereolithographic resin, the effect differing from the influence of the inhibitors like, for example, hydroquinone-monomethylether which are added to stereolithographic resins in accordance with the state of the art. The influence of the hydroquinonemonomethylether on the parameters Ec and Dp in the exemplary formulations 2 is shown in FIGS. 3 and 4.
The relevant parameters for the use of the above mentioned resins in stereolithography are collected in Table 1. All viscosity measurements were carried out at 23° C. with a CVO 120 rheometer of Bohlin Instruments. The determination of the bend strength, the modulus of elasticity and the elongation were carried out in accordance with EN ISO 178 (1996) with a Zwick 1—test machine of the Zwick firm. For the determination of the Ec and Dp values by means of the above mentioned window pane method, the average value from 10 window pane sample bodies was determined. The sample bodies were produced with a Viper Si^2 SLA apparatus equipped with an ND:YVO4 solid body laser. The green bodies were after hardened with a stroboscope lighting unit Sonolux PR from Innovation Meditech by means of 4000 flashes.

Row | Compound | influence of inhibitor concentration on laser penetration depth Dp | influence of inhibitor concentration on critical energy Ec
1 | COc1ccc(O)cc1 [hydroauinonemonomethylether, hydroquinone-monomethylether] | greater than in the case of the use of the 2,2,6,6-tetramethyl piperdine-1-yloxy (free radical) | can only be adjusted by significantly higher concentrations
2 | CC1(C)CCCC(C)(C)N1[O] [2,2,6,6-tetramethylpiperdine-1-yloxy (free radical)] | only a limited change in the penetration depth | surprising increase in the critical energy
